Residues, ends and D or L forms follow the SMILES beside them. *: point of attachment. AFC = O=c1cc(C(F)(F)F)c2ccc(N*)cc2o1; Cbz = O=C(OCc1ccccc1)*; CH2F = FC*
Experiments:
Taenia solium crude mix = test: Competitor assay of vehicles against high Vmax substrate cocktails (Step III), crude mix; assay type: biochemical; conditions: for V Value: V = P * M
Experimental: Step III for a crude mix proceeds it would for a purified protease, except that Vm is used instead of kcat.
The experiment began with a competitor test between the noncleaved low Vmax substrates and the highest Vmax substrate, Z-Phe-Arg-AFC. Concentrations were varied between the low Vmax substrate and Z-Phe-Arg-AFC, as described above under "refinement of assay" until a relative inhibition profile was obtained.
Percent inhibition was calculated as: %Inhibition =; ((AFC positive for"Y"-AFC negative for"Y")-(AFC test-AFC negative for"Y")X100)/(AFC positive for "Y"-AFC negative for "Y") [formula]
One of the most intriguing findings in this experiment was that a highly similar inhibition pattern for the competitor assay was noted when the crude mix was employed as the source of the target protease. Although there were some variations in the effects of inhibitor dilution, the most highly ranked vehicles remained inhibitory consistently in comparison to the profile with the target protease. The relative profile and composition of the top tiers of vehicles was identical. Z-LLL-AFC, Z-LLY-AFC, Mu-LY-AFC, Boc-VPR-AFC, Z-SY-AFC, Z-RR-AFC, Z-FLF-AFC, Z-LGR-AFC consistently presented as the top eight vehicles (Fig. 5b), respectively, based upon their V values (Table 2). […] It was notable that the three vehicles had very similar V values. […] As was mentioned, this vehicle along with Z-LLL-AFC and Z-LLY-AFC, were consistently the most inhibitory vehicles. The V values of the most inhibitory vehicle series are shown below in Table 2. Again, a clear break between the first and second tier vehicles could be noted with the V value. Table 2. Vehicles and V value rankings.

Cathepsin B (cysteine) = Cathepsin B (cysteine) (Homo sapiens, UniProt P07858); test: Differential cleavage (selectivity) test, Cathepsin B; assay type: biochemical; conditions: 0.4 M Citrate pH 6.1, 10 mM L-cysteine, substrate Z-ARR-AFC; for inhibition at 0.0003 µM: inhibitor 3 X 10^-10 M
Experimental: (§1) In order to perform the assay, the vehicle (for Step VI) or inhibitor (for Step IX) were incubated with the appropriate substrate in the correct assay buffer and allowed to equilibrate. Subsequently, the protease was added, and the assay was allowed to incubate for an appropriate time. The concentrations used in this experiment were as follows: Vehicle was set up at 4 X 10^-5 M in final assay buffer; Inhibitor was set up at 3 X 10^-10 M in the final assay buffer. Accordingly, the dosages employed should be the minimal amount of vehicle or inhibitor necessary to induce inhibition. […] Substrates were set up based upon the preferred substrate for cleavage of the particular enzyme.
(§2) Positive controls were set up similarly as described for test controls, except that solvent was added in substitution for the inhibitor or vehicle (in a volume equal to the volume of inhibitor or vehicle addition). All of the inhibitors and vehicles could be dissolved in dimethylsulfoxide (DMSO), and therefore, this was the solvent of choice. Negative controls were set up by adding the inhibitor or vehicle and the preferred substrates in a tube without the protease. All potential non-proteolytic liberation of AFC was therefore controlled for in this tube (a feature which also insured stability of the AFC substrates, since these substrates will freely liberate AFC when unstable).
(§3) All controls were set up in triplicate, and experiments were repeated a minimum of five times.
(§4) Percent inhibition was calculated as: % Inhibition = ((AFC positive for ʺSIʺ-AFC negative for ʺSIʺ)-(AFC test-AFC negative for ʺSIʺ))/(AFC positive for ʺSIʺ-AFC negative for ʺSIʺ) × 100 [formula] In this preliminary test, we employed the following human-derived enzymes (with indicated mechanistic class): Cathepsin B (cysteine), Cathepsin L (cysteine), Cathepsin H (cysteine), Cathepsin D (aspartic) Trypsin (serine), the purified Taenia solium cysteine protease, and the Taenia solium crude mix. Cathepsin B was prepared in an assay buffer of 10 mM L-cysteine in 0.4 M Citrate buffer, pH 6.1, using Z-ARR-AFC as the cleavage substrate. Cathepsin L was prepared in an assay buffer of 10 mM L-cysteine in 0.4 M Citrate buffer, pH 5.5, using Z-FR-AFC as the cleavage substrate. Cathepsin H was prepared in an assay buffer of 10 mM L-cysteine in 0.15 M PBS buffer, pH 6.8, using L-R-AFC as the cleavage substrate. Cathepsin D was prepared in an assay buffer of 0.15 M PBS, pH 7.1, using Z-RGFFP-AFC as the cleavage substrate. Trypsin was prepared in an assay buffer of 0.15 M PBS, pH 8.0, supplemented with 100 mM CaCl2 and with Z-R-AFC as the cleavage substrate. Enzyme was incubated so that it was at least 50 times less than the concentration of substrate in order to insure saturating conditions.

Trypsin (serine) = test: Differential cleavage (selectivity) test, Trypsin; assay type: biochemical, human; conditions: 0.15 M PBS pH 8.0, 100 mM CaCl2, substrate Z-R-AFC
Experimental: as §1, §2, §3, §4

[1] = inhibitor 3 X 10^-10 M, 0.0003 µM

Compound	Tier (Taenia solium crude mix)	V Value (Taenia solium crude mix)	inhibition at 40 µM (Cathepsin B (cysteine); vehicle 4 X 10^-5 M) [%]	% Inhibition (Trypsin (serine); vehicle 4 X 10^-5 M, 40 µM) [%]	inhibition at 0.0003 µM (Cathepsin B (cysteine)) [%]	% Inhibition (Trypsin (serine); [1]) [%]	% Inhibition (Cathepsin B (cysteine); vehicle 4 X 10^-5 M, 40 µM) [%]
CC(C)C[C@H](NC(=O)OCc1ccccc1)C(=O)N[C@@H](CC(C)C)C(=O)N[C@@H](CC(C)C)C(=O)Nc1ccc2c(C(F)(F)F)cc(=O)oc2c1 [Z-LLL-AFC, Z-Leu-Leu-Leu-AFC] (Cbz-Leu-Leu-Leu-{AFC})	1 (The first tier was composed of those vehicles, which produced inhibition greater than 50% when in the presence of the 1.4% cocktail)	0.611	0	0	–	–	–
CC(C)C[C@H](NC(=O)[C@H](CC(C)C)NC(=O)[C@H](CC(C)C)NC(=O)OCc1ccccc1)C(=O)CF [Z-LLL-FMK, Z-Leu-Leu-Leu-fluoromethylketone] (Cbz-Leu-Leu-Leu-CH2F)	–	–	–	–	0	0	–
CC(C)C[C@H](NC(=O)OCc1ccccc1)C(=O)N[C@@H](CC(C)C)C(=O)N[C@@H](Cc1ccc(O)cc1)C(=O)Nc1ccc2c(C(F)(F)F)cc(=O)oc2c1 [Z-LLY-AFC, Z-Leu-Leu-Tyr-AFC] (Cbz-Leu-Leu-Tyr-{AFC})	1 (The first tier was composed of those vehicles, which produced inhibition greater than 50% when in the presence of the 1.4% cocktail)	0.55	0	0	–	–	–
CC(C)C[C@H](NC(=O)OCc1ccccc1)C(=O)N[C@@H](CC(C)C)C(=O)N[C@@H](Cc1ccc(O)cc1)C(=O)CF [Z-LLY-FMK, Z-Leu-Leu-Tyr-FMK] (Cbz-Leu-Leu-Tyr-CH2F)	–	–	–	–	0	0	–
Mu-Leu-Tyr-AFC [Mu-LY-AFC]	1 (The first tier was composed of those vehicles, which produced inhibition greater than 50% when in the presence of the 1.4% cocktail)	0.45	–	0	–	–	0

— patent publication EP1276895B1, “METHOD FOR THE IDENTIFICATION OF ACTIVE SITE PROTEASE INACTIVATORS” (THE UNIVERSITY OF GEORGIA RESEARCH FOUNDATION, INC., priority 2000, dated 2001)
